This is an account of results in patent US20200078453A1, “METHODS OF TREATING A MAMMAL SUFFERING FROM OR SUSCEPTIBLE TO AN IMMUNE REACTION TO DRUG TREATMENT” (Idogen AB, priority 2015, published 2020).

Structures are written as SMILES. Where two headings read alike, the source gives them in different places.

In data set [1] the test system is IDO1 gene expression (mRNA level) in THP-1 cells. The data set is described as follows: Induction of IDO1 in THP-1 cells, RT-qPCR. The data set is classed as cell-based, human. Particulars: compound alone, 0.1-10 micromolar. As to the method: THP-1 cells were harvested from appropriate number of T75 flasks. Cells were counted in a Bürker chamber, stained with 0.4% Trypan Blue. The appropriate number of cells for each experiment were transferred to a new tube and centrifuged at 1200 rpm, 5 min at room temperature (RT). The supernatant was discarded and fresh RPMI with 5% FBS were added to get a cell concentration of 2×10^5 cells/mL. The compound was added to the five separate wells in 6-well plates such that five different final concentrations were obtained after adding the cells. A control was added to one well in the 6-well plate to which cells were added. 1×10^6 cells per well were seeded out to achieve a total volume of 5 mL per well. The cells were incubated at 37° C. in 5% CO2 for 96 hours. After 96 hours the assay was stopped and the cells were lysed for the isolation of RNA.
Total RNA was extracted from THP-1 cells using the RNA RNeasy Mini extraction kit (Qiagen), according to the manufacturer's instructions. […]
Following RNA extraction and quantification of gene expression by RT-qPRC, as described above, induction of IDO1 gene expression using Samples 1 to 6 was investigated. […]
Following RNA extraction and quantification of gene expression by RT-qPRC, as described above, induction of IDO1 gene expression using Samples 7 to 12 was investigated.
A general note: Real-time PCR tracks product formation cycle by cycle.

The conditions of data set [2]: cited from earlier work.
The conditions of data set [3]: cited from earlier work. This is another data set of the same source.

As to `Nc1ncn([C@@H]2O[C@H](CO)[C@@H](O)[C@H]2O)c(=O)n1` [5-azacytidine], the “increase of IDO1 gene expression (maximum)” value in data set [1] is reported as “up to 23 fold”.
Regarding `O=c1ncccn1[C@@H]1O[C@H](CO)[C@@H](O)[C@H]1O` [Zebularine], the toxicity entry in data set [2] (at high concentrations) is on record as “toxic”. Moreover, the cytotoxicity result in data set [2] (in vitro and in vivo, at used concentrations) was “minimally cytotoxic”. For the same compound, the figures for the half-life result in data set [3] (37° C. in PBS at pH 1.0) and in data set [3] (37° C. in PBS at pH 7.0) were “approximately 44 h” and about 21.2 days, respectively.
In the case of `Nc1ncn([C@H]2C[C@H](O)[C@@H](CO)O2)c(=O)n1` [decitabine, 5-aza-2′-deoxycytidine], the “increase of IDO1 gene expression (maximum)” value in data set [1] was “up to 101 fold”.
